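Cells were grown in 96-well plates and exposed to each compound for 48 hours at five concentrations; endpoints were interpolated linearly between bracketing concentrations, or set to the highest concentration if not reached. TGI is the concentration that stops growth completely.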
Legend:
Assay in all cases: growth of human tumour cells (NCI), 48 h
[1] = tested on: A549 NSCLC
[2] = tested on: CAKI-1 renal
[3] = tested on: CCRF-CEM leukemia
[4] = tested on: COLO 205 colon
[5] = tested on: DLD-1 colon
[6] = tested on: DMS 114 small cell lung
[7] = tested on: DMS 273 small cell lung
[8] = tested on: EKVX NSCLC
[9] = tested on: HCC-2998 colon
[10] = tested on: HL-60(TB) leukemia
[11] = tested on: HOP-92 NSCLC
[12] = tested on: HT29 colon
[13] = tested on: IGROV1 ovarian
[14] = tested on: K-562 leukemia
[15] = tested on: KM12 colon
[16] = tested on: LOX IMVI melanoma
[17] = tested on: LXFL 529 NSCLC
[18] = tested on: M14 melanoma
[19] = tested on: MOLT-4 leukemia
[20] = tested on: NCI-H226 lung
[21] = tested on: NCI-H23 lung
[22] = tested on: NCI-H460 lung
[23] = tested on: NCI-H522 lung
[24] = tested on: OVCAR-3 ovarian
[25] = tested on: OVCAR-4 ovarian
[26] = tested on: OVCAR-8 ovarian
[27] = tested on: RPMI-8226 leukemia
[28] = tested on: RXF 393 renal
[29] = tested on: SF-539 CNS
[30] = tested on: SK-MEL-28 melanoma
[31] = tested on: SK-MEL-5 melanoma
[32] = tested on: SK-OV-3 ovarian
[33] = tested on: SNB-19 CNS
[34] = tested on: SNB-75 CNS
[35] = tested on: SNB-78 CNS
[36] = tested on: SW-620 colon
[37] = tested on: TK-10 renal
[38] = tested on: U251 CNS
[39] = tested on: UACC-257 melanoma
[40] = tested on: UACC-62 melanoma
[41] = tested on: 786-0 renal
[42] = tested on: A498 renal
[43] = tested on: ACHN renal
[44] = tested on: HCT-116 colon
[45] = tested on: HCT-15 colon
[46] = tested on: HOP-18 NSCLC
[47] = tested on: HOP-62 NSCLC
[48] = tested on: KM20L2 colon
[49] = tested on: M19-MEL melanoma
[50] = tested on: MALME-3M melanoma
[51] = tested on: OVCAR-5 ovarian
[52] = tested on: SF-268 CNS
[53] = tested on: SK-MEL-2 melanoma
[54] = tested on: SN12C renal
[55] = tested on: SR leukemia
[56] = tested on: UO-31 renal
[57] = tested on: XF 498 CNS

`CCSc1nc2cccc([N+](=O)[O-])c2n1CC` was tested, and the TGI [1] was > 100 µM, the TGI [2] was > 100 µM and the TGI [3] was > 100 µM. For the same compound, the TGI [4] was > 100 µM, the TGI [5] was > 100 µM and the TGI [6] was > 100 µM. For the same compound, the TGI [7] was > 100 µM, the TGI [8] was > 100 µM and the TGI [9] was > 100 µM. For the same compound, the TGI [10] was > 100 µM, the TGI [11] was > 100 µM and the TGI [12] was > 100 µM. For the same compound, the TGI [13] was > 100 µM, the TGI [14] was > 100 µM and the TGI [15] was > 100 µM. The TGI [16] was > 100 µM, the TGI [17] was > 100 µM and the TGI [18] was > 100 µM. The TGI [19] was > 100 µM, the TGI [20] was > 100 µM and the TGI [21] was > 100 µM. For the same compound, the TGI [22] was > 100 µM, the TGI [23] was > 100 µM and the TGI [24] was > 100 µM. For the same compound, the TGI [25] was > 100 µM, the TGI [26] was > 100 µM and the TGI [27] was > 100 µM. For the same compound, the TGI [28] was > 100 µM, the TGI [29] was > 100 µM and the TGI [30] was > 100 µM. The TGI [31] was > 100 µM, the TGI [32] was > 100 µM and the TGI [33] was > 100 µM. The TGI [34] was > 100 µM, the TGI [35] was > 100 µM and the TGI [36] was > 100 µM. For the same compound, the TGI [37] was > 100 µM, the TGI [38] was > 100 µM and the TGI [39] was > 100 µM. For the same compound, the TGI [40] was > 100 µM.

In the case of `Cc1ccc(N2C(=O)CS/C2=C(\C#N)c2nc3ccccc3[nH]2)cc1`, the TGI [41] is reported as > 100 µM, the TGI [42] is reported as > 100 µM and the TGI [1] is reported as > 100 µM. For the same compound, the TGI [43] was > 100 µM, the TGI [2] was > 100 µM and the TGI [3] was > 100 µM. The TGI [4] was > 100 µM, the TGI [5] was > 100 µM and the TGI [6] was > 100 µM. For the same compound, the TGI [7] was > 100 µM, the TGI [8] was > 100 µM and the TGI [9] was > 100 µM. For the same compound, the TGI [44] was > 100 µM, the TGI [45] was > 100 µM and the TGI [10] was > 100 µM. The TGI [46] was > 100 µM, the TGI [47] was > 100 µM and the TGI [11] was > 100 µM. For the same compound, the TGI [13] was > 100 µM, the TGI [14] was > 100 µM and the TGI [15] was > 100 µM. The TGI [48] was > 100 µM, the TGI [16] was > 100 µM and the TGI [17] was > 100 µM. The TGI [18] was > 100 µM, the TGI [49] was > 100 µM and the TGI [50] was > 100 µM. For the same compound, the TGI [19] was > 100 µM, the TGI [20] was > 100 µM and the TGI [21] was > 100 µM. The TGI [22] was > 100 µM, the TGI [23] was > 100 µM and the TGI [24] was > 100 µM. For the same compound, the TGI [25] was > 100 µM, the TGI [51] was > 100 µM and the TGI [26] was > 100 µM. The TGI [27] was > 100 µM, the TGI [52] was > 100 µM and the TGI [29] was > 100 µM. The TGI [53] was > 100 µM, the TGI [30] was > 100 µM and the TGI [31] was > 100 µM. The TGI [54] was > 100 µM, the TGI [33] was > 100 µM and the TGI [34] was > 100 µM. The TGI [55] was > 100 µM, the TGI [36] was > 100 µM and the TGI [37] was > 100 µM. For the same compound, the TGI [38] was > 100 µM, the TGI [39] was > 100 µM and the TGI [40] was 82.7 µM. For the same compound, the TGI [56] was > 100 µM and the TGI [57] was > 100 µM.

Reference: PubChem BioAssay (NCI)
